Experimental data published in patent US20170291905A1, “ARGININE […] INHIBITORS AND USES THEREOF” (Epizyme, Inc., priority 2014, published 2017).

Biological target: full-length human PRMT8 isoform 1 (Homo sapiens, UniProt Q9NR22)
Assay: PRMT8 biochemical assay (3H-SAM Flashplate, histone H4 31-45 peptide)
Conditions: 1.5 nM PRMT8, 30 min preincubation, 150 nM peptide
How it was run: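 Purified untagged full-length PRMT8 (1.5 nM) preincubated with compound 30 min at room temperature in 20 mM Bicine pH 7.6, then reacted with 150 nM biotinylated H4 peptide, 50 nM 3H-SAM plus 550 nM SAM, 2% DMSO. Stopped with 400 uM cold SAM; peptide captured on streptavidin Flashplate, counted; % inhibition vs DMSO/SAH controls fitted for IC50.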

Chain of full-length human PRMT8 isoform 1 (Q9NR22 whole entry, canonical isoform): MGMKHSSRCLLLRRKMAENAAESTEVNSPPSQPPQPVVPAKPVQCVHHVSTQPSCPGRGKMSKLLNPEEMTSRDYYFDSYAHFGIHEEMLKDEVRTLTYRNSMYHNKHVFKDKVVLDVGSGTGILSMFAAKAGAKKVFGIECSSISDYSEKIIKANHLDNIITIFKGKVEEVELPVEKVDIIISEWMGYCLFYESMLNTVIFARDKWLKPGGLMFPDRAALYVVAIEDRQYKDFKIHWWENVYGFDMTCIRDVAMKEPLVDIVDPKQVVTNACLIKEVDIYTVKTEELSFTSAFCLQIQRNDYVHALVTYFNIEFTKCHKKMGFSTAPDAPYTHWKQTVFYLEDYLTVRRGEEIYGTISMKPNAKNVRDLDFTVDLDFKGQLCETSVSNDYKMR

| SMILES | IC50 |
| --- | --- |
| CCOCCOCC1(COCCOCC)CCC(c2n[nH]cc2CN(C)CCNC)CC1 [compound 39, N1-((3-(4,4-bis((2-ethoxyethoxy)methyl)cyclohexyl)-1H-pyrazol-4-yl)methyl)-N1,N2-dimethylethane-1,2-diamine] | 0.139 µM |
| CNCCN(C)Cc1c[nH]nc1C1CCC(COCCC2CCOCC2)(COCCC2CCOCC2)CC1 [compound 40] | 0.0455 µM |
| CN(C)CCN(C)Cc1c[nH]nc1[C@H]1CC[C@@]2(CC1)CC(C)(C)CO2 [compound 42, N1-((3-((5S,8S)-3,3-dimethyl-1-oxaspiro[4.5]decan-8-yl)-1H-pyrazol-4-yl)methyl)-N1,N2,N2-trimethylethane-1,2-diamine] | 0.0338 µM |
| CN(C)CCN(C)Cc1c[nH]nc1[C@H]1CC[C@]2(CC1)CC(C)(C)CO2 [compound 43, N1-((3-((5r,8r)-3,3-dimethyl-1-oxaspiro[4.5]decan-8-yl)-1H-pyrazol-4-yl)methyl)-N1,N2,N2-trimethylethane-1,2-diamine] | 0.0972 µM |
| CNCCN(C)Cc1c[nH]nc1C1CCC(CO)(CO)CC1 [compound 44, (4-(4-((methyl(2-(methylamino)ethyl)amino)methyl)-1H-pyrazol-3-yl)cyclohexane-1,1-diyl)dimethanol] | 0.0344 µM |
| CNCCN(C)Cc1c[nH]nc1C1=CCC2(CC1)CC(C)(C)CO2 (stereo not drawn) [compound 46, N1-((3-(3,3-dimethyl-1-oxaspiro[4.5]dec-7-en-8-yl)-1H-pyrazol-4-yl)methyl)-N1,N2-dimethylethane-1,2-diamine] | 0.0246 µM |
| CCC1(CC)C[C@]2(CC[C@@H](c3n[nH]cc3CN(C)CCNC)CC2)NC1=O [compound 48, (5r,8r)-3,3-diethyl-8-(4-((methyl(2-(methylamino)ethyl)amino)methyl)-1H-pyrazol-3-yl)-1-azaspiro[4.5]decan-2-one] | 0.0706 µM |

Molecules with a lower IC50, results first:

| IC50 | SMILES |
| --- | --- |
| 0.0111 µM | CC[C@H]1CC[C@@H](c2n[nH]cc2CN(C)CCNC)CC1 [compound 1] |
| 0.00927 µM | CNCCN(C)Cc1c[nH]nc1C1CCC(COCC2CC2)(COCC2CC2)CC1 [compound 41, N1-((3-(4,4-bis((cyclopropylmethoxy)methyl)cyclohexyl)-1H-pyrazol-4-yl)methyl)-N1,N2-dimethylethane-1,2-diamine] |
| 0.0112 µM | CNCCN(C)Cc1c[nH]nc1C1CCC(COC)(COCC2CCOCC2)CC1 (stereo not drawn) [compound 45] |
| 0.0149 µM | CCC1(CC)C[C@]2(CC[C@H](c3n[nH]cc3CN(C)CCNC)CC2)NC1=O [compound 47, (5s,8s)-3,3-diethyl-8-(4-((methyl(2-(methylamino)ethyl)amino)methyl)-1H-pyrazol-3-yl)-1-azaspiro[4.5]decan-2-one] |
| 0.0167 µM | CNCCN(C)Cc1ccnn1[C@H]1CC[C@@]2(CC1)CC(C)(C)CO2 [compound 49, N1-((1-((5s,8s)-3,3-dimethyl-1-oxaspiro[4.5]decan-8-yl)-1H-pyrazol-5-yl)methyl)-N1,N2-dimethylethane-1,2-diamine] |
